Among the data in article PMC12120625, “Cytotoxicity and Nanoassembly Characteristics of Aromatic Amides of Oleanolic Acid and Ursolic Acid” (ACS Omega, 2025) are IC50, nanoassembly and solubility values, retold here.

What is called IC50 is the point on the concentration scale where inhibition reaches its midpoint. The low end stands for greater potency in that assay, the high end for weaker potency in that assay.

Bounds are passed on as bounds.

In data set [1] the test system is CCRF-CEM. Put plainly: Cytotoxicity assay, resazurin, 72 h, CCRF-CEM. The format is cell-based. The settings on record: Homo sapiens, T-lymphoblastic leukemia. The procedure:
(§1) The cytotoxicity screening tests were made with T-lymphoblastic leukemia (CCRF-CEM), breast adenocarcinoma (MCF7), cervical carcinoma (HeLa), and malignant melanoma (G-361) cancer cell lines (the European Collection of Authenticated Cell Cultures, Salisbury, U.K.). Human foreskin fibroblasts (BJ) were used as reference cells, and they were obtained from the American Type Culture Collection (ATCC, Manassas, Virginia). The cells were cultured in DMEM (Dulbecco’s modified Eagle’s medium) or RPMI 1640 (CCRF-CEM). Media used were supplemented with 10% fetal serum, L-glutamine (2 mM), and 1% penicillin–streptomycin mixture (all from Sigma-Aldrich). The cell lines were maintained under standard cell culture conditions at 37 °C and 5% CO2 in a humid environment. Cells were subcultured two or three times a week using the standard trypsinization procedure.
(§2) The cytotoxicity assays were performed according to the standard experimental procedure published earlier. The cell viability was measured after 72 h using resazurin (Sigma-Aldrich). Western blotting and caspase activity assay were performed as described earlier. ,
A general note: The colour change of resazurin is a common sign of viable cells or microbes.

Data set [2] relates to G-361. In words: Cytotoxicity assay, resazurin, 72 h, G-361. The format is cell-based. The settings on record: Homo sapiens, malignant melanoma. The protocol:
as §1, §2

For data set [3], the system named is HeLa. Put plainly: Cytotoxicity assay, resazurin, 72 h, HeLa. It is filed as cell-based. The settings on record: Homo sapiens, cervical cancer. The protocol: as §1, §2
In data set [4] the test system is MCF7. Put plainly: Cytotoxicity assay, resazurin, 72 h, MCF7. The settings on record: Homo sapiens, breast adenocarcinoma. It is filed as cell-based. The protocol:
as §1, §2

Data set [5] can be described thus: Cytotoxicity assay, resazurin, 72 h, normal fibroblasts BJ. The settings on record: human, BJ normal foreskin fibroblasts, normal foreskin fibroblast. It is filed as cell-based. The procedure:
as §1, §2

Data set [6] in a line: Nanoassembly by UV spectroscopy and TEM in methanol and water. It is filed as physicochemical. Conditions: UV spectra and TEM. The protocol: UV spectra were measured on a Specord 210 spectrometer (Jena Analytical, Germany) in the wavelength range of 200–400 nm. The stock solutions of the studied compounds (9b, 13b, 16b, or 17b; 0.003 mmol) were prepared in methanol (2 mL) at a concentration of 1 mg·mL^–1. A series of water/methanol mixtures were then prepared starting from a water/methanol ratio of 0/100 up to 100/0 in 20% steps. The stock solutions of the studied compounds (0.15 mL) were added separately to each vial containing water/methanol mixtures (3 mL), and the UV spectra were recorded in the wavelength range of 200–400 nm. Aliquots of the stock solutions of the studied compounds (160 μL) were used to prepare samples in the given ratios of water/methanol (0:100 to 100:0 in the 20% steps) mixtures. The UV spectra were recorded in the time 0, 1, 2, 3, and 4 h, followed by a subsequent recording after each 24 h during 7 days (Supporting Information, Figure S33). Note: All target compounds were subjected to this type of investigation; however, self-assembly characteristics were detected by measuring the UV spectra only with 9b, 13b, 16b, and 17b.
Transmission electron microscopy (TEM) was performed with a Tecai G2 Spirit Twin 12 microscope (FEI, Brno, Czech Republic). The samples for TEM were prepared by the fast-drying method, both in methanol and in water. , The studied compounds (2 μL of each one) were dissolved in methanol, and if studies should have been made in water, the compounds were first dissolved in methanol, and then water was added to make the final methanol/water (1:10) solutions. The solutions of compounds in either solvent were made to get the final concentrations of c = 10 mg·mL^–1. Then the solutions were dropped onto a standard carbon-coated copper TEM grid (300 mesh). After 2 min, the rest of the solution was removed by touching the bottom of the grid with a thin strip of filter paper. This fast removal of the solvent, also referred to as “fast-drying” above, is necessary to minimize drying artifacts, as documented in previous studies. , The fast-dried specimens were left to dry completely at an ambient temperature. […] The morphology of selected samples was verified by additional TEM experiments, which employed the samples that were negatively stained with uranyl acetate (UO2Ac2). The negative staining was performed as follows: A small volume (2 μL) of UO2Ac2 (2 wt % of aqueous solution) was dropped on the selected dried specimens from the previous step (i.e., on the dried specimens on the carbon-coated TEM grids). After 1 min, the excess of UO2Ac2 solution was removed (by touching the bottom of the grid with filter paper, like in the previous step). […]

A short description of data set [7]: Solubility in methanol and water. It is filed as physicochemical.

Take `C[C@H]1[C@H](C)CC[C@]2(C(=O)O)CC[C@]3(C)C(=CC[C@@H]4[C@@]5(C)CC[C@H](O)C(C)(C)[C@@H]5CC[C@]43C)[C@H]12` [Compound 1b, (3β)-3-hydroxy-urs-12-en-28-oic-acid, reference compound]: the IC50 in data set [1] was 13.2 ± 2.7 µM; in data set [2], 9.7 ± 0.3 µM; in data set [3], 12.6 ± 2.7 µM; in data set [4], 16.2 ± 0.5 µM. The midpoint of inhibition in data set [5], the IC50 at 72 h, lay at 15.6 ± 0.6 µM.

`CC1(C)CC[C@]2(C(=O)NCC(=O)Nc3ccc(N)cc3)CC[C@]3(C)C(=CC[C@@H]4[C@@]5(C)CC[C@H](O)C(C)(C)[C@@H]5CC[C@]43C)[C@@H]2C1` [Compound 9a]: the nanoassembly result in data set [6] was “showed no nanoassembly”. The IC50 in data set [1] is 31.7 ± 2.3 µM; in data set [2] it was 18.6 ± 2.3 µM; in data set [3] it was 28.7 ± 1.8 µM; in data set [4] it was 17 ± 2.1 µM. Moreover, the IC50 at 72 h in data set [5] was determined as 37.9 ± 6.1 µM.

As to `CC1(C)CC[C@]2(C(=O)NCC(=O)Nc3cc4cccnc4c4ncccc34)CC[C@]3(C)C(=CC[C@@H]4[C@@]5(C)CC[C@H](O)C(C)(C)[C@@H]5CC[C@]43C)[C@@H]2C1` [Compound 5a], the half-inhibitory concentration (IC50) in data set [1] was 0.3 ± 0.1 µM; in data set [2], 0.5 ± 0.1 µM; in data set [3], 0.6 ± 0.2 µM; in data set [4] it was 0.4 ± 0.1 µM. For the same compound, 1.5 ± 0.1 µM corresponded to half-maximal inhibition in data set [5] (IC50 at 72 h).

With `CC(=O)O[C@H]1CC[C@]2(C)[C@H]3CC=C4[C@@H]5[C@@H](C)[C@H](C)CC[C@]5(C(=O)NCC(=O)Nc5ccc(N)cc5)CC[C@@]4(C)[C@]3(C)CC[C@H]2C1(C)C` [Compound 7b], the IC50 in data set [1] turned out to be 18.1 ± 0.4 µM; in data set [2] it was 11.2 ± 0.4 µM; in data set [3], 12.5 ± 2.3 µM; in data set [4], 14.9 ± 2.2 µM. The compound further displayed a half-maximal inhibitory concentration (IC50) at 72 h in data set [5] of 36.1 ± 4.5 µM.

Consider `CC(=O)O[C@H]1CC[C@]2(C)[C@H]3CC=C4[C@@H]5CC(C)(C)CC[C@]5(C(=O)NCC(=O)Nc5ccc(N)cc5)CC[C@@]4(C)[C@]3(C)CC[C@H]2C1(C)C` [Compound 7a], for which the IC50 in data set [1] was 17.1 ± 1.9 µM; in data set [2], 8.5 ± 0.1 µM; in data set [3], 10.9 ± 1.9 µM; in data set [4] it was 12 ± 2.5 µM. Moreover, the IC50 at 72 h in data set [5] came out at 18.5 ± 2.6 µM.

On to `C[C@H]1[C@H](C)CC[C@]2(C(=O)NCC(=O)Nc3cc4cccnc4c4ncccc34)CC[C@]3(C)C(=CC[C@@H]4[C@@]5(C)CC[C@H](O)C(C)(C)[C@@H]5CC[C@]43C)[C@H]12` [Compound 5b], for which the IC50 was 0.6 ± 0.1 µM in data set [1], 0.5 ± 0.1 µM in data set [2], 0.6 ± 0.1 µM in data set [3] and 0.5 µM in data set [4]. Also, the IC50 at 72 h in data set [5] was 1.6 ± 0.1 µM.

Regarding `CC(=O)O[C@H]1CC[C@]2(C)[C@H]3CC=C4[C@@H]5[C@@H](C)[C@H](C)CC[C@]5(C(=O)NCC(=O)Nc5cccc(N)c5)CC[C@@]4(C)[C@]3(C)CC[C@H]2C1(C)C` [Compound 11b], the concentration for half-maximal inhibition (IC50) in data set [1] stood at 32.6 ± 8.7 µM; in data set [2], 15 ± 0.8 µM; in data set [3], 14.6 ± 2.7 µM; in data set [4], 15.8 ± 3.2 µM. In data set [5], this compound returned a half-maximal inhibitory concentration (IC50) at 72 h of 44.8 ± 0.6 µM.

`CC(=O)O[C@H]1CC[C@]2(C)[C@H]3CC=C4[C@@H]5[C@@H](C)[C@H](C)CC[C@]5(C(=O)NCC(=O)O)CC[C@@]4(C)[C@]3(C)CC[C@H]2C1(C)C` [Compound 3b]: the 50% inhibitory concentration (IC50) in data set [1] stood at 43.3 ± 5.4 µM; in data set [2], 38.7 ± 4.9 µM; in data set [4], 49.7 ± 0.5 µM. The IC50 at 72 h in data set [5] was over 50 µM.

On to `C[C@H]1[C@H](C)CC[C@]2(C(=O)NCC(=O)Nc3cccc(N)c3)CC[C@]3(C)C(=CC[C@@H]4[C@@]5(C)CC[C@H](O)C(C)(C)[C@@H]5CC[C@]43C)[C@H]12` [Compound 13b], for which the nanoassembly entry in data set [6] was “displayed nanoassembly in methanol and water”. Moreover, the IC50 in data set [1] was determined as 22.3 ± 2.3 µM; in data set [2] it was 14.4 ± 2.9 µM; in data set [3], 26.7 ± 2.7 µM; in data set [4] it was 12.8 ± 2.5 µM. Moreover, the solubility result in data set [7] is “soluble both in methanol and in water”. This compound also registered an IC50 at 72 h in data set [5] of 38.5 ± 0.8 µM.

As to `CC1(C)CC[C@]2(C(=O)O)CC[C@]3(C)C(=CC[C@@H]4[C@@]5(C)CC[C@H](O)C(C)(C)[C@@H]5CC[C@]43C)[C@@H]2C1` [Compound 1a, (3β)-3-hydroxyolean-12-en-28-oic-acid, reference compound], the IC50 in data set [1], in data set [2], in data set [3] and in data set [4] was over 50 µM in each case. The same compound yielded a half-inhibitory concentration (IC50) at 72 h in data set [5] of over 50 µM.

Take `CC(=O)O[C@H]1CC[C@]2(C)[C@H]3CC=C4[C@@H]5CC(C)(C)CC[C@]5(C(=O)NCC(=O)Nc5cccc(N)c5)CC[C@@]4(C)[C@]3(C)CC[C@H]2C1(C)C` [Compound 11a]: the half-maximal inhibitory concentration (IC50) was over 50 µM in data set [1], 38.6 ± 1.3 µM in data set [2], 41.9 ± 4.7 µM in data set [3] and 39.5 ± 1.5 µM in data set [4]. In data set [5], this compound returned a half-inhibitory concentration (IC50) at 72 h of over 50 µM.

For `C[C@H]1[C@H](C)CC[C@]2(C(=O)NCC(=O)Nc3ccc(N)cc3)CC[C@]3(C)C(=CC[C@@H]4[C@@]5(C)CC[C@H](O)C(C)(C)[C@@H]5CC[C@]43C)[C@H]12` [Compound 9b], the nanoassembly result in data set [6] is “displayed nanoassembly in methanol and water”. Besides, the IC50 was determined as 25.8 ± 0.4 µM in data set [1], 23.3 ± 1 µM in data set [2], 30 ± 2.8 µM in data set [3] and 16.4 ± 3.7 µM in data set [4]. In addition, the solubility result in data set [7] is “soluble both in methanol and in water”. The half-maximal inhibitory concentration (IC50) at 72 h in data set [5] worked out at 35.2 ± 1.3 µM.

`CC(=O)O[C@H]1CC[C@]2(C)[C@H]3CC=C4[C@@H]5[C@@H](C)[C@H](C)CC[C@]5(C(=O)NCC(=O)Nc5cc6cccnc6c6ncccc56)CC[C@@]4(C)[C@]3(C)CC[C@H]2C1(C)C` [Compound 4b]: the half-inhibitory concentration (IC50) in data set [1] stood at 0.6 ± 0.2 µM; in data set [2], 0.5 ± 0.1 µM; in data set [3], 0.4 ± 0.1 µM; in data set [4] it was 0.9 ± 0.3 µM. It took 1.5 ± 0.5 µM to reach half-maximal inhibition in data set [5] (IC50 at 72 h).

Consider `CC(=O)O[C@H]1CC[C@]2(C)[C@H]3CC=C4[C@@H]5CC(C)(C)CC[C@]5(C(=O)NCC(=O)O)CC[C@@]4(C)[C@]3(C)CC[C@H]2C1(C)C` [Compound 3a], for which the half-maximal inhibitory concentration (IC50) in data set [1] was 41 ± 5.9 µM; in data set [2] it was 43.1 ± 1.1 µM; in data set [3], 35.8 ± 3.4 µM; in data set [4], 46.9 ± 4.4 µM. This compound also gave an IC50 at 72 h in data set [5] of over 50 µM.

In the case of `CC(=O)O[C@H]1CC[C@]2(C)[C@H]3CC=C4[C@@H]5CC(C)(C)CC[C@]5(C(=O)NCC(=O)Nc5cc6cccnc6c6ncccc56)CC[C@@]4(C)[C@]3(C)CC[C@H]2C1(C)C` [Compound 4a], the IC50 in data set [1] was 0.6 ± 0.1 µM; in data set [2], 0.4 µM; in data set [3], 0.3 µM; in data set [4] it was 0.7 ± 0.1 µM. Further, half-maximal inhibition in data set [5] (IC50 at 72 h) was put at 0.8 ± 0.1 µM.

For `CC1(C)CC[C@]2(C(=O)NCC(=O)Nc3cccc(N)c3)CC[C@]3(C)C(=CC[C@@H]4[C@@]5(C)CC[C@H](O)C(C)(C)[C@@H]5CC[C@]43C)[C@@H]2C1` [Compound 13a], the nanoassembly result in data set [6] was “showed no nanoassembly”. For the same compound, the IC50 came to 29.4 ± 4.4 µM in data set [1], 19.5 ± 2.1 µM in data set [2], 19.9 ± 1 µM in data set [3] and 14.2 ± 1.3 µM in data set [4]. Besides, the IC50 at 72 h in data set [5] was found to be 45.7 ± 2.2 µM.
